Laboratory results as given in paper PMC9889419 (Pharmacological Reports, 2022).
Counter-ions that a name gives are not always drawn. Like-named read-outs stand apart in the source and are kept apart here.

Tests used:
rats = conditions: ip, […]
Description: (§5) The assays were carried out within the Epilepsy Therapy Screening Program (ETSP, previously known as the Anticonvulsant Screening Program, ASP), Epilepsy Branch, National Institute of Neurological and Communicative Disorders and Stroke, National Institutes of Health in Rockville, MD, USA [23].

mice [1] = assay: Bicuculline-induced seizures; type: in vivo; conditions: ip
[2] = system: CYP3A4 (pregnane X receptor); assay: In vitro metabolic gene induction studies; type: cell-based, human
From the text: Solvent Code: DMSO solvent Prep: Unit: uM
lsofoIm Coder CYP3A4 Cell line: DP)e
Induction mechanism: pregnane X receptor

Cl- channel (GABA-gated) = assay: Radioligand binding; design: species or system rat; conditions: 100 μM
Description: (§1) Radioligand binding. Radioligand binding assays were performed at Eurofins CEREP (France). The results are expressed as a percent of control specific binding (measured specific binding*100/control specific binding) and as a percent inhibition of control specific binding (100-(measured specific binding*100)/control specific binding) obtained in the presence of the test compounds. The IC50 values (concentration causing a half-maximal inhibition of control specific binding) and Hill coefficients (nH) were determined by non-linear regression analysis of the competition curves generated with mean replicate values using Hill equation curve fitting (Y = D + [A-D]/[1 + (C/C50)^nH], where Y = specific binding, A = left asymptote of the curve, D = right asymptote of the curve, C = compound concentration, C50 = IC50, and nH = slope factor). This analysis was performed using software developed at Cerep (Hill software) and validated by comparison with data generated by the commercial software SigmaPlot® 4.0 for Windows® (© 1997 by SPSS Inc.). The inhibition constants (Ki) were calculated using the Cheng Prusoff equation (Ki = IC50/[1 + L/KD], where L = concentration of radioligand in the assay, and KD = affinity of the radioligand for the receptor). A scatchard plot is used to determine the Kd.

BB (non-selective) = assay: Radioligand binding; design: species or system rat; conditions: 100 μM
Description: as §1

P2Y = assay: Radioligand binding; design: species or system rat; conditions: 100 μM
Description: as §1

KV channel = assay: Radioligand binding; design: species or system rat; conditions: 100 μM
Description: as §1

P2X = assay: Radioligand binding; design: species or system rat; conditions: 100 μM
Description: as §1

PCP = assay: Radioligand binding; design: species or system rat; conditions: 100 μM
Description: as §1

GABA (non-selective) = assay: Radioligand binding; design: species or system rat; conditions: 100 μM
Description: as §1

SKCa channel = assay: Radioligand binding; design: species or system rat; conditions: 100 μM
Description: as §1

mice [3] = assay: Rotarod test (neurotoxicity); type: in vivo; conditions: ip, […];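 also: in vivo neurotoxicity screen run within the NIH Epilepsy Therapy Screening Program (ETSP, formerly Anticonvulsant Screening Program)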
Description: as §5
(§6) The obtained compounds were screened for antiseizure activity and neurotoxicity in vivo within the Epilepsy Therapy Screening Program (ETSP, previously known as the Anticonvulsant Screening Program, ASP), Epilepsy Branch, National Institute of Neurological and Communicative Disorders and Stroke, National Institutes of Health in Rockville, MD, USA [23].

[4] = system: CYP1A2 (aryl hydrocarbon receptor); assay: In vitro metabolic gene induction studies; type: cell-based, human
Description: Anticonvulsant Screening prog ram
(§2) Test 28 - In Vitro Metabolic Gene Induction Studies
SolventCode: DMSO Solvent Prep: Unit: uM
(§3) Cell line source: Puracyp Molecular 257.7590
DateStarted: O5+eb-2O1O Date Completed: 15+eb-2010 Weig ht:
Reference: Lamb boolc#t! p9.77
lsoform Code: CyplAz Cell line: lAzDRE
Inducffon mechanism: aryl hydrocarbon receptor
Concentration Induction Cell
Fold +/- S.D Viability +/- S.D
0 1 +t- o.cs n 1n +L 2.2o n
Max induction 2 fold @ 200uM
. '^ (calculated): slgnificant decrease in viability at this concentation in vitso.
(§4) (1 picture or pasted object on this page, not shown here)

[5] = system: P-glycoprotein (pregnane X receptor); assay: In vitro metabolic gene induction studies; type: cell-based, human; conditions: up to 500 uM
From the text: as §2
Solventcode: DMSO Solvent Prep: Unit: uM
as §3
Date Started: O5+eb-2O10 Date Completed: 15+eb-201O Weight:
Reference: Lamb book#8 pg.77 […]
lsoform Code: P{lycoprotein cell line: MDRI.C
Induc0on mechanism: pregnane X receptor
Concentration lnduction Cell […]
Note: 8ox ifdata is different.
. {calculated): slight Induotion (under tlffo fold) in vitro.
The highest response was less than that seen with 1ouM rifampicin.
as §4

[6] = pKa by potentiometric titration; type: physicochemical; conditions: aqueous solution titrated with 0.051 M NaOH; 37 °C
Description: pKa. The assay was performed by potentiometric titration, at 37 °C. The method is based on the additional portions of 0.051 M NaOH solution to the aqueous solution of test compounds, on electromagnetic stirrer with contact thermometer (Heidolph MR Hei-Standard). NaOH solution was added in 500 μL portions using Eppendorf automatic pipette. Waiting a few seconds after each titrant addition allowed the solution temperature to stabilize. After this time pH was recorded with the use of pH-meter CP-551 (Elmetron) for precise determination of pH in laboratory conditions (pH 0–14; pH accuracy ± 0.01) with combined chloride electrode OSH-10-10 (enables measurements in the temperature range 0–60 °C and pH range 1–12). Then, next portion of titrant was added. Titration was completed after 15 mL of NaOH solution was added. Threefold repetitions of titration were applied. pKa of the tested compound was calculated on the basis of the pH values obtained.

[7] = Rotarod test (neurotoxicity); type: in vivo, mice; conditions: mouse, in vivo; mice, ip, 0.25 h;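 also: in vivo neurotoxicity screen run within the NIH Epilepsy Therapy Screening Program (ETSP, formerly Anticonvulsant Screening Program)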
Description: as §5, §6

Tissue distribution = type: in vivo, rats; conditions: for t0.5λz / Cmax / MRT / Tmax / Kp / k el: 5 mg/kg iv; for Kp: read-out: Kp (tissue-to-plasma AUC ratio); for k el: read-out: λz (converted)
Description: Pharmacokinetic study design. Male Wistar rats (250–300 g) bred in-house from progenitors obtained from Charles River Laboratories (Sulzfed, Germany) were used in this study. […] Moreover, this compound dissolved in the same solvent was administered orally (po) by oral gavage at two doses (50 and 100 mg/kg) (n = 4). Blood samples were collected from the catheter at various time points up to 5 h. […] The animals were anaesthetized (50/7.5 mg/kg ketamine/xylazine, ip) and sacrificed by decapitation at 5, 15, 30, 60, 120, 180, and 300 min after compound administration (n = 4 per time point). Blood was collected into heparinized tubes and organs such as liver, brain, lungs, kidneys, and heart were harvested. The blood samples were centrifuged at 4000 rpm for 10 min (EBA 12R, Hettich, Germany). Plasma and organs were stored at − 80 °C until analysis.
Before analysis, tissue samples were homogenized in phosphate-buffered saline, pH 7.4 (1:4, w/v) with a tissue homogenizer (TH220; Omni International, Inc., Warrenton, VA, USA). Plasma (100 μL) or homogenate samples (500 μL) were mixed with an internal standard (IS) solution (R-( +)-propranolol, 4 μg/mL in methanol). Then, 20 μL of sodium carbonate (0.125 M) was added to each tube and the samples were extracted with 3 mL of diethyl ether by vortexing for 1 min. After centrifugation (3000 rpm, 15 min), the organic phase was transferred to a new tube and evaporated to dryness under a gentle stream nitrogen at 37 °C in a water bath. The dry residue was reconstituted in 100 μL of acetonitrile. Subsequently, 50 μL of 0.2 M borate buffer (pH = 7.0) and 50 μL of 6 mM FMOC-Cl solution in acetonitrile were added. […] The reaction was stopped by the addition of 0.1 M solution of glycine in water (30 μL) and vortexing for 1 min. The reaction mixture was transferred directly into the autosampler vials. The chromatographic system (Merck-HITACHI, Japan) consisted of an L-2485 spectrofluorimetric detector operating at the excitation and emission wavelengths of 267 and 316 nm, respectively, an L-2130 pump, an L-2350 column oven, and an L-2200 autosampler. The EZChrom Elite Client/Server version 3.2 (Agilent Technologies Inc.) was used for data acquisition and processing. […] The column temperature was maintained at 50 °C. The mobile phase consisted of a mixture of acetonitrile and water (67:33, v/v), and pumped at a flow rate of 1 mL/min.
Pharmacokinetic data analysis. Plasma and tissue concentration versus time profiles were analyzed by the non-compartmental approach in Phoenix WinNonlin v. 6.3 software (Pharsight Corporation, Mountain View, CA, USA). The peak concentration (Cmax) and the time to reach Cmax (tmax) were obtained directly from individual concentration–time profiles. The initial concentration (C0) after an iv dosing was obtained by extrapolation to zero time. The linear trapezoidal rule was applied to calculate the areas under the concentration–time curve (AUC) from the time of dosing to the last measured data point (AUC0-t) or infinity (AUC0-∞). The terminal slope (λz) was estimated by linear regression and the terminal half-life (t0.5λz) was calculated as ln2/λz. The volume of distribution based on the terminal phase (Vz) was calculated as: Dose/(λz ∙ AUC0-∞), whereas clearance (CL) was obtained from the following equation: Dose/AUC0-∞. The mean residence time (MRT) was defined as: AUMC0-∞/AUC0-∞, where AUMC is the area under the first moment curve. The absolute bioavailability (Fa) was calculated according to the equation: (AUCpo./Dosepo)/(AUCiv/Doseiv).
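For Cmax in this document: organ homogenates in PBS analysed by HPLC after FMOC-Cl derivatization, non-compartmental analysis, Kp as tissue over plasma AUC, half-life taken as ln2 divided by λz.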
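For concentration in rat brain (approximated) in this document: organ homogenates in PBS analysed by HPLC after FMOC-Cl derivatization, non-compartmental analysis, Kp as tissue over plasma AUC, half-life taken as ln2 divided by λz.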
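For concentration in rat brain in this document: organ homogenates in PBS analysed by HPLC after FMOC-Cl derivatization, non-compartmental analysis, Kp as tissue over plasma AUC, half-life taken as ln2 divided by λz.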
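For t0.5λz in this document: organ homogenates in PBS analysed by HPLC after FMOC-Cl derivatization, non-compartmental analysis, Kp as tissue over plasma AUC, half-life taken as ln2 divided by λz.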

CCC(CO)NCCOc1c(C)cccc1Cl (stereo not drawn) [Compound 4, R,S-2-((2-(2-chloro-6-methylphenoxy)ethyl)amino)butan-1-ol]
LTG-resistant amygdala seizures: active at (rats): 15 mg/kg
Bicuculline-induced seizures ED50 (mice [1]): > 70 mg/kg
Max induction (calculated) ([2]; @ 200uM): 12 fold
EC50 ([2]; read-out: EC50 (calculated)): 100 µM
% of control specific binding (Cl- channel (GABA-gated)): 99.6%
% of control specific binding (BB (non-selective)): 104.6%
% of control specific binding (P2Y): 102.2%
% of control specific binding (KV channel): 104.2%
% of control specific binding (P2X): 100.6%
% of control specific binding (PCP): 72.6%
% of control specific binding (GABA (non-selective)): 109.3%
% of control specific binding (SKCa channel): 90.5%
Rotarod TD50 (mice [3]; female mice): 40.11 (36.49–42.98) mg/kg
Rotarod TD50 (mice [3]; mice): 54.99 (52.95–56.94) mg/kg
EC50 ([4]; 1A2DRE cell line, read-out: EC50 (calculated)): 37 µM
Max induction (calculated) ([4]; @ 200uM): 2 fold
induction [5]: slight induction

CCC(CO)NCCOc1c(C)cccc1Cl (stereo not drawn) [KM-408, R,S-2-((2-(2-chloro-6-methylphenoxy)ethyl)amino)butan-1-ol hydrochloride]
pKa [6]: 9.5
TD50 [7]: 64.3 mg/kg
t0.5λz (Tissue distribution; Brain): 28.56 min
t0.5λz (Tissue distribution; Heart): 41.30 min
t0.5λz (Tissue distribution; Kidneys): 16.23 min
t0.5λz (Tissue distribution; Liver): 41.99 min
t0.5λz (Tissue distribution; Lungs): 30.84 min
concentration in rat brain (approximated) (Tissue distribution; 2 h after iv, tissue density 1 g/mL assumed): ~2.2*10^–7 M
concentration at 2 h (Tissue distribution; male, Wistar, rat, brain, 5 mg/kg, 2 h after iv administration): 64.9 ng/g
Cmax (Tissue distribution; male, Wistar, rat, Brain): 1770 ng/g
MRT (Tissue distribution; male, Wistar, rat, Brain): 37.9 min
Tmax (Tissue distribution; male, Wistar, rat, Brain): 5 min
Kp (Tissue distribution; male, Wistar, rat, Brain): 0.83
k el (Tissue distribution; male, Wistar, rat, Brain): 0.0004 s⁻¹
Cmax (Tissue distribution; male, Wistar, rat, Heart): 494 ng/g
MRT (Tissue distribution; male, Wistar, rat, Heart): 58.5 min
Tmax (Tissue distribution; male, Wistar, rat, Heart): 15 min
Kp (Tissue distribution; male, Wistar, rat, Heart): 0.38
k el (Tissue distribution; male, Wistar, rat, Heart): 0.000283 s⁻¹
Cmax (Tissue distribution; male, Wistar, rat, Kidneys): 1950 ng/g
MRT (Tissue distribution; male, Wistar, rat, Kidneys): 25.3 min
Tmax (Tissue distribution; male, Wistar, rat, Kidneys): 5 min
Kp (Tissue distribution; male, Wistar, rat, Kidneys): 0.62
k el (Tissue distribution; male, Wistar, rat, Kidneys): 0.000717 s⁻¹
Cmax (Tissue distribution; male, Wistar, rat, Liver): 161 ng/g
MRT (Tissue distribution; male, Wistar, rat, Liver): 113 min
Tmax (Tissue distribution; male, Wistar, rat, Liver): 5 min
Kp (Tissue distribution; male, Wistar, rat, Liver): 0.14
k el (Tissue distribution; male, Wistar, rat, Liver): 0.000283 s⁻¹
Cmax (Tissue distribution; male, Wistar, rat, Lungs): 4350 ng/g
MRT (Tissue distribution; male, Wistar, rat, Lungs): 46.9 min
Tmax (Tissue distribution; male, Wistar, rat, Lungs): 5 min
Kp (Tissue distribution; male, Wistar, rat, Lungs): 1.76
k el (Tissue distribution; male, Wistar, rat, Lungs): 0.000383 s⁻¹
